Experimental data taken from US4610981A, “N-[(1H-imidazol-1-yl) and (1H-1,2,4-triazol-1-yl)-alkyl]benzenesulfonamides and thromboxane synthetase/antihypertensive compositions” (priority 1985, dated 1986).
Counter-ions that a name gives are not always drawn. Like-named read-outs stand apart in the source and are kept apart here.

Tests used:
[1] = Hypotensive activity in spontaneously hypertensive rats, mean arterial blood pressure (Chan and Poorvin); format: in vivo, spontaneously hypertensive rats of the Okamoto strain; settings: oral gavage, 100 mg/kg or less, two doses 24 hours apart, measured 28 hours after initial dose; average MABP of rats used 160±1.5 mm Hg
Experimental: The novel compounds of the present invention also are active antihypertensive agents and were tested for hypotensive activity by the method of P. S. Chan and D. Poorvin, Clinical and Experimental Hypertension, 1(6), 817-830 (1979). Male, 16 week old, spontaneously hypertensive rats of the Okamoto strain, from Taconic Farms, Germantown, N.Y., having an average mean arterial blood pressure of 160±1.5 mm of mercury are used in the test. One to three rats are used per test compound. A rat is dosed by gavage with a test compound, suspended in 2% pre-boiled starch at a concentration of 50 mg/ml, at a dose of 100 mg/kg of body weight or less, with 0.9% sodium chloride loading at a dose of 25 ml/kg of body weight. A second identical dose of the test compound, without sodium chloride loading, is given 24 hours later. At 28 hours after the initial dose the mean arterial blood pressure is measured by the method of Chan and Poorvin, vide supra. The procedure is repeated in a second and third rat when necessary.

[2] = molecular target: T1, thromboxane synthetase (Rattus norvegicus, UniProt P49430); test: Inhibition of thromboxane (TXA2) formation in SHR platelets, TXB2 measured by radioimmunoassay; format: cell-based, Okamoto-Aoki spontaneously hypertensive rats (SHR); settings: read-out: % Inhibition (of TXB2 formation)
T1 construct: The platelets were isolated by centrifuging the PRP for 10 minutes; endogenous in cells; host or cells: washed platelets from arterial blood of Okamoto-Aoki spontaneously hypertensive rats (animals from Taconic Farms)
T1 sequence (P49430 1-533): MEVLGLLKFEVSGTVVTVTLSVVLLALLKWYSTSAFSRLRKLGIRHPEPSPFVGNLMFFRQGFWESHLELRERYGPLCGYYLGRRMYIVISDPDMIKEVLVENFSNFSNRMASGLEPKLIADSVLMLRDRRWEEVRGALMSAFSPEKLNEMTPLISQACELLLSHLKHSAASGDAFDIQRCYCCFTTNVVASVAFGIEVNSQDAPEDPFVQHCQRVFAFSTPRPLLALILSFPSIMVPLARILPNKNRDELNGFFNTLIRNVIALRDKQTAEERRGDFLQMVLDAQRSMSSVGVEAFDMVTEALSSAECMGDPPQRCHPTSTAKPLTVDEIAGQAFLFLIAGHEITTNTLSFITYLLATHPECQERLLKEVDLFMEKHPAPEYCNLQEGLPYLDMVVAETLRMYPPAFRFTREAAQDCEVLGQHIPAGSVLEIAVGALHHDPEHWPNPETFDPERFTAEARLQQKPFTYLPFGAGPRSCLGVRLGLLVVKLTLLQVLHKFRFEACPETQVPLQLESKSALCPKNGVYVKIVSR
Experimental: The inhibition of thromboxane (TXA2) formation was studied by determining the concentration of thromboxane B2 (TXB2), the stable hydrolysis product of TXA2. […] The blood was diluted with 3 ml cold saline and centrifuged at room temperature for 15 minutes at 460×g. The platelet rich plasma (PRP) was separated. The platelets were isolated by centrifuging the PRP for 10 minutes at 1060×g and were washed in 4 ml cold oxygenated Krebs phosphate buffer, pH 7.4. The chilled platelets recovered from centrifuging at 800×g for 10 minutes were resuspended in oxygenated Krebs phosphate buffer and diluted to contain 4.5-6.0×10^4 platelets/μl. Assay samples, prepared on ice, contained 200 μl platelet suspension, 50 μl saline, and 50 μl vehicle or drug under study. The samples were incubated for 10 minutes at 37° C. in a metabolic shaker. The reaction was terminated by immersing the tubes in an ice bath and adding 50 μl of 0.5M citric acid. The samples were centrifuged for 10 minutes in a refrigerated centrifuge and the supernatants thus obtained were decanted and stored at -20° C.

[3] = canines; J. Cardiovascular Pharmacology, 4, 129 (1982); cited from earlier work
[4] = guinea pigs; literature; cited from earlier work
[5] = rabbits; literature; cited from earlier work
[6] = dose 10^-4 M, SHR washed platelets, 10 minutes at 37° C.

Row | SMILES | inhibition at 100 µM [2, 6] [%] | MABP in mm Hg [1] [mm Hg] | other results
1 | O=S(=O)(NCCn1ccnc1)c1ccc(Br)cc1 [4-Bromo-N-[2-(1H-imidazol-1-yl)ethyl]benzenesulfonamide] | – | 125 | –
2 | O=S(=O)(NCCCn1ccnc1)c1ccc(Br)cc1 [4-Bromo-N-[3-(1H-imidazol-1-yl)propyl]benzenesulfonamide] | – | 126 | inhibition at 100 µM [2]: 100%
3 | O=S(=O)(NCCCCn1ccnc1)c1ccc(Br)cc1 [4-Bromo-N-[4-(1H-imidazol-1-yl)butyl]benzenesulfonamide] | 91 | – | –
4 | O=S(=O)(NCCc1cccnc1)c1ccc(Cl)cc1 [4-Chloro-N-[2-(3-pyridyl)ethyl]benzenesulfonamide] | 90 | 109 | –
5 | O=S(=O)(NCCCn1cncn1)c1ccc(Cl)cc1 [4-Chloro-N-[3-(1H-1,2,4-triazol-1-yl)propyl]benzenesulfonamide] | – | 127 | –
6 | O=S(=O)(NCCCn1ccnc1)c1ccc(Cl)cc1 [4-Chloro-N-[3-(1H-imidazol-1-yl)propyl]benzenesulfonamide] | 99 | 120 | –
7 | O=S(=O)(NCCCCn1ccnc1)c1ccc(Cl)cc1 [4-Chloro-N-[4-(1H-imidazol-1-yl)butyl]benzenesulfonamide] | 94 | – | –
8 | O=S(=O)(NCCCCCn1ccnc1)c1ccc(Cl)cc1 [4-Chloro-N-[5-(1H-imidazol-1-yl)pentyl]benzenesulfonamide hydrochloride] | 97 | – | –
9 | O=S(=O)(NCCCCCn1ccnc1)c1ccc(Cl)cc1 [4-Chloro-N-[5-(1H-imidazol-1-yl)pentyl]benzenesulfonamide] | – | 119 | –
10 | O=S(=O)(NCCCCCCCCn1ccnc1)c1ccc(Cl)cc1 [4-Chloro-N-[8-(1H-imidazol-1-yl)octyl]benzenesulfonamide] | 93 | 132 | –
11 | CCCCC[C@H](O)/C=C/[C@@H]1[C@H]2C/C(=C/CCCC(=O)O)O[C@H]2C[C@H]1O [PGI2] | – | – | effect on ischemic myocardium (in words) [3]: beneficial effects
12 | CCCCCC(O)/C=C/C1OC2CC(O2)C1C/C=C\CCCC(=O)O (centres unmarked) [TXA2] | – | – | effect of injection into coronary arteries (in words) [4]: causes myocardial ischemia and subendocardial necrosis; effect of injection into coronary arteries (in words) [5]: causes myocardial ischemia and subendocardial necrosis

More lines, main results first:

Row | inhibition at 100 µM [2, 6] [%] | SMILES | MABP in mm Hg [1] [mm Hg] | other results
13 | 67 | O=S(=O)(NCCCn1cncn1)c1ccccc1 [N-[3-(1H-1,2,4-Triazol-1-yl)propyl]benzenesulfonamide] | – | –
14 | 100 | COc1ccc(S(=O)(=O)NCCCn2ccnc2)cc1 [N-[3-(1H-Imidazol-1-yl)propyl]-4-methoxybenzenesulfonamide] | – | –
15 | 93 | O=S(=O)(NCCCCn1ccnc1)c1ccccc1 [N-[4-(1H-Imidazol-1-yl)butyl]benzenesulfonamide] | – | –
16 | 97 | COc1ccc(S(=O)(=O)NCCCCn2ccnc2)cc1 [N-[4-(1H-imidazol-1-yl)butyl]-4-methoxybenzenesulfonamide] | 134 | –
17 | 73 | CC(=O)Nc1ccc(S(=O)(=O)NCCCn2ccnc2)cc1 [N-[4-[[[3-(1H-Imidazol-1-yl)propyl]amino]sulfonyl]phenyl]acetamide] | 131 | –
18 | 100 | CC(=O)Nc1ccc(S(=O)(=O)NCCCCn2ccnc2)cc1 [N-[4-[[[4-(1H-imidazol-1-yl)butyl]amino]sulfonyl]phenyl]acetamide] | 116 | –
